Test results as given in US20080039482A1, “SULFONAMIDO-MACROCYCLES AS TIE2 INHIBITORS AND SALTS THEREOF, PHARMACEUTICAL COMPOSITIONS COMPRISING SAME, METHODS OF PREPARING SAME AND USES OF SAME” (priority 2006, published 2008).

What was measured:
Aurora-C = target: T1, Aurora-C (Homo sapiens, UniProt Q9UQB9); assay: Aurora C HTRF assay (assay 5); format: biochemical; conditions: IC50 assay 5/IC50 assay 2
T1 construct: GST; made in house; host or cells: HEK293 (the text adds '(Sf9)', which contradicts this)
T1 sequence (Q9UQB9 1-309): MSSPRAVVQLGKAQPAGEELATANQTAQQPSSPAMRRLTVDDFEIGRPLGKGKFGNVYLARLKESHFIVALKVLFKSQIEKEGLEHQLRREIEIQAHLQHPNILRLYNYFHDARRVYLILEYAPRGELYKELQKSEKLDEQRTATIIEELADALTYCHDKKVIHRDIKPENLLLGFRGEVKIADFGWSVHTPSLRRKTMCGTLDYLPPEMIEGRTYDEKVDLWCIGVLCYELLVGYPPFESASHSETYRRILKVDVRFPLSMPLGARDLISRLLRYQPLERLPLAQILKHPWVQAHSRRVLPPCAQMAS
Excerpt: Assay 5: Aurora C HTRF Assay
Aurora-C inhibitory activity of compounds of the present invention was quantified employing the Aurora-C HTRF assay as described in the following paragraphs.
Recombinant fusion protein of GST and human Aurora-C was expressed in transiently transfected HEK293 cells (Sf9) and purified by Glutathion-Sepharose affinity chromatography. As substrate for the kinase reaction biotinylated peptide biotin-Ttds-FMRLRRLSTKYRT (C-terminus in amid form) was used which can be purchased e.g. form the company JERINI peptide technologies (Berlin, Germany). Aurora-C was incubated for 60 min at 22° C. in the presence of different concentrations of test compounds in 5 μl assay buffer [25 mM Hepes/NaOH pH 7.4, 0.5 mM MnCl2, 2.0 mM dithiothreitol, 0.1 mM sodium ortho-vanadate, 10 μM adenosine-tri-phosphate (ATP), […] substrate, 0.01% (v/v) TritonX-100 (Sigma), 0.05% (w/v) bovine serum albumin, 1% (v/v) dimethylsulfoxide]. The concentration of Aurora-C was adjusted depending of the activity of the enzyme lot and was chosen appropriate to have the assay in the linear range, typical concentrations were in the range of 0.3 nM. The reaction was stopped by the addition of 5 μl of a solution of HTRF detection reagents (0.2 μM streptavidine-XLent and 1.4 nM Anti-Phospho-(Ser/Thr) Akt substrate-Cryptate (Cis biointernational, France, product no. 61P02KAE), a labeled Phospho-(Ser/Thr) Akt substrate antibody [product #9611B, Cell Signalling Technology, Danvers, Mass., USA] labeled with Europium Cryptate, in an aqueous EDTA-solution (40 mM EDTA, 400 mM KF, 0.05% (w/v) bovine serum albumin in 25 mM HEPES/NaOH pH 7.0).
The resulting mixture was incubated 1 h at 22° C. to allow the binding of the biotinylated phosphorylated peptide to the streptavidine-XLent and the Anti-Phospho-(Ser/Thr) Akt substrate-Cryptate. Subsequently the amount of phosphorylated substrate was evaluated by measurement of the resonance energy transfer from the Prot-A-EuK to the streptavidine-XLent. Therefore, the fluorescence emissions at 620 nm and 665 nm after excitation at 350 nm was measured in a HTRF reader, e.g. a Rubystar (BMG Labtechnologies, Offenburg, Germany) or a Viewlux (Perkin-Elmer). The ratio of the emissions at 665 nm and at […] was taken as the measure for the amount of phosphorylated substrate. The data were normalised (enzyme reaction without inhibitor=0% inhibition, all other assay components but no enzyme=100% inhibition) and IC50 values were calculated by a 4 parameter fit using an inhouse software.

Tie2 = Tie2 (Homo sapiens, UniProt Q02763); assay: Tie2 ELISA assay (assay 1): Ang2-stimulated Tie2 autophosphorylation in transfected CHO cells; format: cell-based; parameters: expressed in transfected cells; host or cells: CHO (DHFR selection); conditions: CHO Tie2/DHFR cells stimulated by angiopoietin-2, pIC50 = -log IC50 in molar concentration, read-out: Tie 2 activity (assay 1)
Chain of Tie2 (Q02763 23-1124, species assumed): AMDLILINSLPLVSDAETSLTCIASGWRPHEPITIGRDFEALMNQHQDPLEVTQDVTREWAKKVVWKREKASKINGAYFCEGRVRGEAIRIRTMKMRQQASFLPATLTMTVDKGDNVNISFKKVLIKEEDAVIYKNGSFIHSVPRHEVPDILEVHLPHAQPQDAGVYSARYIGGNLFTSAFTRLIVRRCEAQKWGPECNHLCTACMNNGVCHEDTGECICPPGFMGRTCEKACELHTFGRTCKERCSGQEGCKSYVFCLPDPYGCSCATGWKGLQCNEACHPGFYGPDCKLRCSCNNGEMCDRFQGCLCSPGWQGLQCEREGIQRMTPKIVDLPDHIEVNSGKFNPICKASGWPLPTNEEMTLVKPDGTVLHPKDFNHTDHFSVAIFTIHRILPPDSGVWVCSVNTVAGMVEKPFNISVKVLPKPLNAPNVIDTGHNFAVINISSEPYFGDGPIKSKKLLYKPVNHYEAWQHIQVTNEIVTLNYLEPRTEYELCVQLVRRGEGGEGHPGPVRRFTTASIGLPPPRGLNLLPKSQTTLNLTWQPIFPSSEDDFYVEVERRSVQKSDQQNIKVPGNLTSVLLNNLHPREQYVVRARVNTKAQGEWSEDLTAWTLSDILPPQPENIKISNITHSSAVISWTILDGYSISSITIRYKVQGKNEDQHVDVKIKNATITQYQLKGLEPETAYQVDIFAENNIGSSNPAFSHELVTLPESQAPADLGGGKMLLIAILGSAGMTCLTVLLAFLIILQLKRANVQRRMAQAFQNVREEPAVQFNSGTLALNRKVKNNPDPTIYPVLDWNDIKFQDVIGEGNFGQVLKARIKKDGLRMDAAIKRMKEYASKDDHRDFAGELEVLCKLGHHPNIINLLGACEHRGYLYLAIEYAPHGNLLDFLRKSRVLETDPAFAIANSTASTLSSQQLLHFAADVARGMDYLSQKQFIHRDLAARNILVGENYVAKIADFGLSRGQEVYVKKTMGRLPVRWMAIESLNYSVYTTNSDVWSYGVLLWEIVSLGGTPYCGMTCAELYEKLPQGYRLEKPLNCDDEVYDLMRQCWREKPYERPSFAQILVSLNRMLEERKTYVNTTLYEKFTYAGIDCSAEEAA
Protocol: Cellular activity of compounds of the present invention as inhibitors of Tie2 kinase activity was measured employing a Tie2 ELISA assay as described in the following paragraphs. Herein CHO cell-cultures, which are stably transfected by known techniques with Tie2 using DHFR deficiency as selection marker, are stimulated by angiopoietin-2. The specific autophosphorylation of Tie2 receptors is quantified with a sandwich-ELISA using anti-Tie2 antibodies for catch and anti-phosphotyrosine antibodies coupled to HRP for detection.
• 96 well tissue culture plate, sterile, Greiner • 96 well FluoroNunc plate MaxiSorp Surface C, Nunc • 96 well plate polypropylene for compound dilution in DMSO • CHO Tie2/DHFR (transfected cells) • PBS−; PBS++, DMSO • MEM alpha Medium with Glutamax-I without Ribonucleosides and Deoxyribonucleosides (Gibco #32561-029) with 10% FCS after dialysis! and 1% PenStrep • Lysis buffer: 1 Tablet “Complete” protease inhibitor • 1 cap Vanadate (1 mL>40 mg/mL; working solution 2 mM) • ad 50 mL with Duschl-Puffer • pH 7.6 • Anti-Tie2-antibody 1:425 in Coating Buffer pH 9.6 • Stock solution: 1.275 mg/mL>working: 3 μg/mL • PBST: 2 bottles PBS (10×)+10 ml Tween, fill up with VE-water • RotiBlock 1:10 in VE-water • Anti-Phosphotyrosine HRP-Conjugated 1:10000 in 3% TopBlock • 3% TopBlock in PBST • BM Chemiluminescence ELISA Substrate (POD) • solution B 1:100 solution A • SF9 cell culture medium • Ang2-Fc in SF9 cell culture medium Cell Experiment: • Dispense 5×10^4 cells/well/98 μL in 96 well tissue culture plate • Incubate at 37° C./5% CO2 • After 24 h add compounds according to desired concentrations • Add also to control and stimulated values without compounds 2 μL DMSO • And mix for a few min at room temperature • Add 100 μL Ang2-Fc to all wells except control, which receives insect medium • Incubate 20 min at 37° C. • Wash 3× with PBS++ • Add 100 μl Lysis buffer/well and shake a couple of min at room temperature • Store lysates at […] before utilizing for the ELISA Performance of Sandwich-ELISA • Coat 96 well FluoroNunc Plate MaxiSorp Surface C with anti-Tie2 mAb • 1:425 in Coating buffer pH 9.6; 100 μL/well overnight at 4° C. • Wash 2× with PBST • Block plates with 250 μL/well RotiBlock 1:10 in VE-water • Incubate for 2 h at room temperature or overnight at 4° C. shaking • Wash 2× in PBST • Add thawed lysates to wells and incubate overnight shaking at 4° C. • Wash 2× with PBST • Add 100 μL/well anti-Phosphotyrosine HRP-Conjugated 1:10000 in 3% • TopBlock (3% TopBlock in PBST) and incubate overnight under shaking • Wash 6× with PBST • Add 100 μL/well BM Chemiluminescence ELISA Substrate (POD) • solutions 1 und 2 (1:100) • Determine luminescence with the LumiCount. Assay 2: Tie-2-Kinase HTRF-Assay Without Kinase Preactivation

Row | Compound | Selectivity vs. Aurora C (Aurora-C) | IC50 (Tie2)
1 | Cc1ccc(C2(C(=O)Nc3ccc(-c4cnc5nc4NCCCNS(=O)(=O)c4cccc(c4)N5)cc3)CC2)cc1 [Example 1, 1-p-Tolyl-cyclopropane-carboxylic acid [4-(13,13-dioxo-13λ^6-thia-2,4,8,12,19-pentaaza-tricyclo[12.3.1.1^3,7]nonadeca-1(18),3(19),4,6, 14,16-hexaen-6-yl)-phenyl]-amide] | >20 fold | < 100 nM
2 | CC(C)(C(=O)Nc1ccc(-c2cnc3nc2NCCCNS(=O)(=O)c2cccc(c2)N3)cc1)c1ccc(Cl)cc1 [Example 13, 2-(4-Chloro-phenyl)-N-[4-(13,13-dioxo-13λ^6-thia-2,4,8,12,19-pentaaza-tricyclo[12.3.1.1^3,7]-nonadeca-1(18),3(19),4,6,14,16-hexaen-6-yl)-phenyl]-isobutyramide] | >20 fold | 100 to 1000 nM
3 | COc1ccc(C2(C(=O)Nc3ccc(-c4cnc5nc4NCCCNS(=O)(=O)c4cccc(c4)N5)cc3)CC2)cc1 [Example 4, 1-(4-Methoxy-phenyl)-cyclopropane-carboxylic acid [4-(13,13-dioxo-13λ^6-thia-2,4,8,12,19-pentaaza-tricyclo[12.3.1.1^3,7]-nonadeca-1(18),3(19),4,6,14,16-hexaen-6-yl)-phenyl]-amide] | >20 fold | < 100 nM
4 | O=C(Nc1ccc(-c2cnc3nc2NCCCNS(=O)(=O)c2cccc(c2)N3)cc1)C1(c2cc(C(F)(F)F)ccc2F)CC1 [Example 12, 1-(2-Fluoro-5-trifluoromethyl-phenyl)-cyclopropane-carboxylic acid [4-(13,13-dioxo-13λ^6-thia-2,4,8,12,19-pentaaza-tricyclo[12.3.1.1^3,7]-nonadeca-1(18),3(19),4,6,14,16-hexaen-6-yl)-phenyl]-amide] | >20 fold | < 100 nM
5 | O=C(Nc1ccc(-c2cnc3nc2NCCCNS(=O)(=O)c2cccc(c2)N3)cc1)C1(c2ccc(Cl)cc2)CC1 [Example 6, 1-(4-Chloro-phenyl)-cyclopropane-carboxylic acid [4-(13,13-dioxo-13λ^6-thia-2,4,8,12,19-pentaaza-tricyclo[12.3.1.1^3,7]-nonadeca-1(18),3(19),4,6,14,16-hexaen-6-yl)-phenyl]-amide] | >20 fold | < 100 nM
6 | O=C(Nc1ccc(-c2cnc3nc2NCCCNS(=O)(=O)c2cccc(c2)N3)cc1)C1(c2ccccc2F)CC1 [Example 7, 1-(2-Fluoro-phenyl)-cyclopropane-carboxylic acid [4-(13,13-dioxo-13λ^6-thia-2,4,8,12,19-pentaaza-tricyclo[12.3.1.1^3,7]nonadeca-1(18),3(19),4,6,14,16-hexaen-6-yl)-phenyl]-amide] | >20 fold | < 100 nM
7 | O=C(Nc1ccc(-c2cnc3nc2NCCCNS(=O)(=O)c2cccc(c2)N3)cc1)C1(c2cccc(C(F)(F)F)c2)CC1 [Example 10, 1-(3-Trifluoromethyl-phenyl)-cyclopropane-carboxylic acid [4-(13,13-dioxo-13λ^6-thia-2,4,8,12,19-pentaaza-tricyclo[12.3.1.1^3,7]nonadeca-1(18),3(19),4,6,14,16-hexaen-6-yl)-phenyl]-amide] | >20 fold | < 100 nM
8 | O=C(Nc1ccc(-c2cnc3nc2NCCCNS(=O)(=O)c2cccc(c2)N3)cc1)C1(c2cccc(F)c2)CC1 [Example 8, 1-(3-Fluoro-phenyl)-cyclopropane-carboxylic acid [4-(13,13-dioxo-13λ^6-thia-2,4,8,12,19-pentaaza-tricyclo[12.3.1.1^3,7]nonadeca-1(18),3(19),4,6,14,16-hexaen-6-yl)-phenyl]-amide] | >20 fold | < 100 nM

More lines, now with the values ahead:

Row | Selectivity vs. Aurora C (Aurora-C) | IC50 (Tie2) | Compound
9 | >20 fold | < 100 nM | O=C(Nc1ccc(-c2cnc3nc2NCCCNS(=O)(=O)c2cccc(c2)N3)cc1)C1(c2cccc(Cl)c2)CC1 [Example 5, 1-(3-Chloro-phenyl)-cyclopropane-arboxylic acid [4-(13,13-dioxo-13λ^6-thia-2,4,8,12,19-pentaaza-tricyclo[12.3.1.1^3,7]-nadeca-1(18),3(19),4,6,14,16-hexaen-6-yl)-phenyl]-amide]
10 | >20 fold | < 100 nM | Cc1ccccc1C1(C(=O)Nc2ccc(-c3cnc4nc3NCCCNS(=O)(=O)c3cccc(c3)N4)cc2)CC1 [Example 2, 1-o-Tolyl-cyclopropane-arboxylic acid [4-(13,13-dioxo-13λ^6-thia-2,4,8,12,19-pentaaza-tricyclo[12.3.1.1^3,7]nonadeca-1(18),3(19),4,6,14,16-hexaen-6-yl)-phenyl]-amide]
11 | >20 fold | < 100 nM | O=C(Nc1ccc(-c2cnc3nc2NCCCNS(=O)(=O)c2cccc(c2)N3)cc1)C1(c2ccc(F)cc2)CC1 [Example 9, 1-(4-Fluoro-phenyl)-cyclopropane-carboxylic acid [4-(13,13-dioxo-13λ^6-thia-2,4,8,12,19-pentaaza-tricyclo[12.3.1.1^3.7]nonadeca-1(18),3(19),4,6,14,16-hexaen-6-yl)-phenyl]-amide]
12 | >20 fold | < 100 nM | COc1cccc(C2(C(=O)Nc3ccc(-c4cnc5nc4NCCCNS(=O)(=O)c4cccc(c4)N5)cc3)CC2)c1 [Example 3, 1-(3-Methoxy-phenyl)-cyclopropane-carboxylic acid [4-(13,13-dioxo-13λ^6-thia-2,4,8,12,19-pentaaza-tricyclo[12.3.1.1^3,7]nonadeca-1(18),3(19),4,6,14,16-hexaen-6-yl)-phenyl]-amide]
